The text below walks through data of patent publication US20250041263A1, “USE OF CATECHIN FOR THE TREATMENT OF FGFR-RELATED BONE REPAIR AND BONE FORMATION IMPAIRMENT” (INSTITUT NATIONAL DE LA SANTÉ ET DE LA RECHERCHE MÉDICALE, priority 2021, published 2025).

The experiment has as its system HCH mice (Fgfr3^N534K/+). Briefly: Non-stabilized mandibular fracture repair in HCH mouse model (microCT, repair grade). Type of experiment: in vivo. The conditions noted are these: for BV/TV, treated vs untreated HCH mice: p<0.05. As for the experimental part:
I-Study of mandibular bone repair in the mouse model of hypochondroplasia (Fgfr3^[…]/+) Mandibular bone repair was studied in the HCH mouse model (Fgfr3^[…]/+). The experiments were performed in adult animals at 6 weeks of age, and mice were euthanized at 4 key points: during bone repair (10, 14, 21 days post fracture), and at the end of the normal bone healing process i.e. at 28 days post fracture. Vertical mandibular fractures were performed in the ascending ramus region in Fgfr3^[…]/+ and Fgfr3^+/+ mice. This is a non-stabilized mandibular fracture protocol allowing to analyze the endochondral bone repair process. Four batches (n=100) of Fgfr3^[…]/+ and Fgfr3^+/+ mandible fractures corresponding to different key stages of repair were studied (day 10, day 14, day 21, day 28). Using collagen type II (proliferative cartilage), type X (hypertrophic cartilage) and type I (bone) immunolabelling, we observed that the endochondral process is disturbed, we noted a delayed cartilage resorption, a reduction in the size of hypertrophic chondrocytes area and a defect in bone formation within the repair callus in Fgfr3^[…]/+ compared to Fgfr3^+/+. […] We observed the presence of pseudarthrosis (fibrosis in the callus) in Fgfr3^[…]/+ mice whereas we observed 100% of bone in Fgfr3^+/+ callus. Considering the quality of the newly formed bone at day 28, we defined four grades of repair and classified the mice according to their repair grade (from 1 to 4). The defective repair is significant in Fgfr3^[…]/+ compared to Fgfr3^+/+ (Data not shown). HCH mice (Fgfr3^[…]/+) were treated with (-)-epicatechin (subcutaneous injection at 0.3 mg/kg, 3 times per week) from day 0 (facture of the mandible) to day 14 or day 28. The bone repair analyses were evaluated by microCT scans at day 14 (FIG. 1A) and day 28 (FIG. 1B) post fracture.

Setting [1] is: day 28 grade repair, treated HCH mice.
Where [2] appears, read: microCT, day 14 post fracture, FIG. 1A.
[3] abbreviates: microCT, day 28 post fracture, FIG. 1B.
[4] abbreviates: summary statement, time not stated.

Consider `Oc1cc(O)c2c(c1)O[C@H](c1ccc(O)c(O)c1)[C@H](O)C2` [(−)-epicatechin, (2R,3R)-2-(3,4-dihydroxyphenyl)-3,4-dihydro-2H-chromene-3,5,7-triol], for which, under setting [1], the “Complete bone healing (grade 1), mice with grade / treated mice” value is listed as 1/9; the “Restoration of bone continuity, but presence of mild bone defects (grade 2), mice with grade / treated mice” value is listed as 6/9; the “presence of a bone callus, but with partial bone discontinuity (grade 3), mice with grade / treated mice” value is given as 2/9. Also, the “pseudarthrosis in treated HCH mice” value (day 28 post fracture) is on record as “did not observe pseudarthrosis”. Besides, under setting [2], the “BV/TV of treated Fgfr3^N534K/+ mandibles (in words)” value is given as “increased” and the “volume of the callus, treated vs untreated Fgfr3^N534K/+ (in words)” value was “unchanged”. Besides, where the note is “microCT, day 14 post fracture, subcutaneous 0.3 mg/kg, 3 times per week from day 0”, the “BV/TV, treated vs untreated HCH mice” value is reported as “+19%”. Further, under setting [3], the “BV/TV of treated Fgfr3^N534K/+ mandibles (in words)” value was “increased” and the “volume of the callus, treated vs untreated Fgfr3^N534K/+ (in words)” value is listed as “decreased”. Further, the “volume of the callus, treated vs untreated HCH mice” value (microCT, day 28 post fracture, subcutaneous 0.3 mg/kg, 3 times per week from day 0, p<0.01) is given as −39.8%. In addition, the “BV/TV, treated vs untreated HCH mice” value (microCT, day 28 post fracture, subcutaneous 0.3 mg/kg, 3 times per week from day 0) was “+6.3%”. For the same compound, the “mandible bone formation and repair / defective bone reparation of the callus (overall, in words)” value under setting [4] is recorded as “improves”.

With catechin, under setting [4], the “bone volume/total volume (overall, in words)” value is “increases”; the “mandible bone formation and repair / defective bone reparation of the callus (overall, in words)” value was “partially restores”; the “pseudarthrosis (overall, in words)” value is recorded as “without pseudarthrosis”.
